16 molecules from article PMC2364952, “The Anti-Inflammatory Activity of Boron Derivatives in Rodents” (Metal-Based Drugs, 1995) can be followed below.

pIC50: −log10 of the molar value.

One assay addresses acid phosphatase. Put plainly: Acid phosphatase activity, mouse macrophages. The settings on record: Table 3; read-out: IC50 Acid Phosphatase, Mouse Macrophage. Type of assay: cell-based, mouse (J774 macrophages).
Another assay deals with elastase. Nature of the assay: Elastase activity, mouse macrophages. The assay is classed as cell-based, mouse (J774 macrophages). The note with it: Table 5; read-out: IC50 Elastase, Mouse Macrophage.
Assay [1] deals with tail flick response to heat. Put plainly: Hot plate tail flick screen. The assay is classed as in vivo, CF1 male mice. The settings on record: for Mice Tail Flick: 8 mg/kg I.P., hot plate, Table 2; for tail flick assay time: 8 mg/kg. A general note: Thermal pain tests record how soon the animal reacts.
In the next assay the test system is trypsin. Nature of the assay: Trypsin proteolytic activity, mouse macrophages. The assay is classed as cell-based, mouse (J774 macrophages). The note with it: Table 5; read-out: IC50 Trypsin, Mouse Macrophage.
For a further assay, the system named is cathepsin. Put plainly: Cathepsin activity, mouse macrophages. Type of assay: cell-based, mouse (J774 macrophages). The note with it: Table 3; read-out: IC50 Cathepsin, Mouse Macrophage.
Assay [2] has as its target prostaglandin cyclooxygenase. Put plainly: Prostaglandin cyclooxygenase activity, macrophages. Type of assay: cell-based, mouse (J774 macrophages). The settings on record: Table 7.
The subject of assay [3] is carrageenan-induced inflammation of paw. Put plainly: Carrageenan-induced paw edema, rats.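 For Rat Inflammatory: paw weight increase as percent of control rats.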 The assay is classed as in vivo, Sprague Dawley male rats. The note with it: for reduction in induced edema in rats: 8 mg/kg x 2; for Rat Inflammatory: 8 mg/kg x 2, I.P., Table 2.
The test system of assay [4] is acetic acid induced stretch reflex. Nature of the assay: Local analgesic screen (acetic acid writhing). The assay is classed as in vivo, CF1 mice. The note with it: for Mice Writhing Reflex: 8 mg/kg I.P., Table 2; for reduction of the reflex action: mice, acetic acid induced local pain, 8 mg/kg. (In general: In writhing tests, fewer writhes than in controls are read as antinociception.)

Assay [5] relates to carrageenan-induced pleural fluid. Put plainly: Anti-pleurisy screen.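 For Rat Pleurisy: Pleural fluid volume as percent of control rats.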 Type of assay: in vivo, Sprague Dawley male rats. The note with it: for pleurisy edema in rats: 8 mg/kg; for Rat Pleurisy: rats, 8 mg/kg I.P., 1 h before and 3 h after carrageenan, Table 2.
The target in the next assay is aryl sulphatase. Put plainly: Aryl sulfatase activity, mouse macrophages. The assay is classed as cell-based, mouse (J774 macrophages). The settings on record: Table 3; read-out: IC50 Aryl Sulfatase, Mouse Macrophage.
For assay [6], the system named is carrageenan-induced inflammation of hind foot. Put plainly: Carrageenan-induced foot edema, mice. Type of assay: in vivo, CF1 male mice. The note with it: mice; for anti-inflammatory activity in mouse edema screen: 8 mg/kg x 2. Background: Carrageenan injected into the paw causes an acute inflammation.

Broadly, the pIC50 is the IC50 on a negative log10 scale, so that one unit is a factor of ten. Take `C[NH+](C)[BH2-]C(=O)O` [Compound 3]: the pIC50 on acid phosphatase is 5.32; on elastase, 5.57; with trypsin, 5.51; with cathepsin, 5.19; in assay [2], 5.54. Besides, the “Mice Tail Flick” value in assay [1] is 156 % of control. In assay [1] (mice), the “tail flick assay time” value is on record as “increased”.

With `C[N+](C)(C)[BH2-]C(=O)O` [Compound 4], in assay [3], the “reduction in induced edema in rats” value is “at least 40%” and the “Rat Inflammatory” value is on record as 55 % of control. Further, in assay [4], the “Mice Writhing Reflex” value is recorded as 2 % of control and the “reduction of the reflex action” value was 80%.

For the molecule `CC[NH2+][BH2-]C(=O)O` [Compound 5], in [1], the “Mice Tail Flick” value is 196 % of control. For the same molecule, the “tail flick assay time” value in [1] (mice) is on record as “increased”. Besides, in [3], the “reduction in induced edema in rats” value is given as “at least 40%” and the “Rat Inflammatory” value is 59 % of control. Moreover, in assay [4], the “Mice Writhing Reflex” value is reported as 1 % of control and the “reduction of the reflex action” value is 80%.

Take `CCC[NH+]([BH2-]C(=O)O)CCC` [Compound 6]: in assay [3], the “reduction in induced edema in rats” value was “at least 40%” and the “Rat Inflammatory” value is recorded as 55 % of control. Moreover, the “Mice Writhing Reflex” value in [4] is 19 % of control.

Consider `CCCCCCCCCCCCCCCCCC[N+](C)(C)[BH2-]C(=O)O` [Compound 9], for which the pIC50 at acid phosphatase is 5.27; on elastase it was 5.20; in the assay on trypsin it was 5.68; in the assay with cathepsin, 5.29; in assay [2], 5.60. The “Mice Tail Flick” value in [1] is 231 % of control. In assay [1] (mice), the “tail flick assay time” value is given as “increased”. For the same molecule, in assay [1] (mice, tail flick), the “blocking central pain compared with morphine” value is “as effective as morphine”. The “Rat Inflammatory” value in [3] is given as 72 % of control. Moreover, in assay [5], the “pleurisy edema in rats” value is given as “reduced significantly”. For the same molecule, the “Rat Pleurisy” value in [5] is listed as 37 % of control. Further, the “Mice Writhing Reflex” value in assay [4] is given as 14 % of control. Besides, the “reduction of the reflex action” value in [4] is 80%.

In the case of `O=C(O)[BH2-][n+]1ccccc1` [Compound 11], in [3], the “Rat Inflammatory” value is given as 77 % of control.

As for `COC(=O)[BH2-][N+](C)(C)C` [Compound 16], the pIC50 on acid phosphatase was 5.45; on aryl sulphatase it was 4.75; on elastase, 5.06; in the assay with trypsin, 5.49; with cathepsin, 5.08; in [2], 5.62. Also, the “Mice Tail Flick” value in assay [1] is given as 180 % of control. For the same molecule, the “tail flick assay time” value in assay [1] (mice) is on record as “increased”. For the same molecule, the “Rat Inflammatory” value in assay [3] is 71 % of control. Besides, in assay [5], the “pleurisy edema in rats” value is “reduced significantly”. For the same molecule, the “Rat Pleurisy” value in assay [5] was 45 % of control. In addition, the “Mice Writhing Reflex” value in assay [4] was 2 % of control. Moreover, in [4], the “reduction of the reflex action” value is 80%. Besides, in [6], the “anti-inflammatory activity in mouse edema screen” value (from here on “anti-inflammatory activity”) is given as “less active”.

On to `CCCCCCCCCCCCCCCC[N+](C)(C)[BH2-]C(=O)OCC` [Compound 19], for which, in assay [6], the “anti-inflammatory activity” value is given as “less active”.

For the molecule `CCNC(=O)[BH2-][NH2+]C` [Compound 23], the pIC50 was 5.95 at acid phosphatase; 5.03 at aryl sulphatase; 5.48 on elastase; 5.69 in the assay on trypsin; 5.40 with cathepsin; 5.28 in assay [2]. For the same molecule, the “Mice Tail Flick” value in assay [1] is 81 % of control. For the same molecule, the “reduction in induced edema in rats” value in assay [3] is on record as “at least 40%”. The “Rat Inflammatory” value in [3] is 41 % of control. The “Mice Writhing Reflex” value in assay [4] is reported as 27 % of control. Further, the “reduction of the reflex action” value in [4] is “at least 45%”.

`CCNC(=O)[BH2-][N+](C)(C)C` [Compound 25]: the “Mice Writhing Reflex” value in assay [4] is on record as 89 % of control.

With `CCCCNC(=O)[BH2-][N+](C)(C)C` [Compound 27], in [4], the “reduction of the reflex action” value is on record as “at least 45%”.

`CCNC(=O)[BH2-][N+](C)(C)CC[N+](C)(C)[BH2-]C(=O)NCC` [Compound 30]: in assay [4], the “Mice Writhing Reflex” value is recorded as 34 % of control.

In the case of `CCCCCCCCCCCCCCCCCC[N+](C)(C)[BH2-]C#N` [Compound 36], the pIC50 on acid phosphatase is 5.57; on elastase it was 4.99; with trypsin, 5.36; with cathepsin it was 5.43; in [2] it was 5.65. Further, in [4], the “Mice Writhing Reflex” value is 61 % of control. Further, the “reduction of the reflex action” value in assay [4] is on record as “at least 45%”. In addition, the “anti-inflammatory activity” value in assay [6] was “good activity”.

Take `N#C[BH2-][P+](c1ccccc1)(c1ccccc1)c1ccccc1` [Compound 48]: in assay [1], the “Mice Tail Flick” value is 134 % of control. Besides, the “Rat Inflammatory” value in [3] is given as 78 % of control. In assay [4], the “Mice Writhing Reflex” value was 50 % of control and the “reduction of the reflex action” value was “at least 45%”.

As for `CCNC(=O)[BH2-][P+]([O-])(OCC)OCC.[Na+]` [Compound 54], in [6] (8 mg/kg x 2, I.P., carrageenan), the “reduction of induced edema” value is “at least 40%”.

Take `CCCC[N+](CCCC)(CCCC)CCCC.CCNC(=O)[BH2-][P+]([O-])(OCC)OCC` [Compound 57]: the pIC50 on acid phosphatase was 5.35; on elastase, 5.05; in the assay with trypsin, 5.42; in the assay with cathepsin, 5.19; in assay [2] it was 5.51.
